We go through 14 molecules from ChEMBL document CHEMBL3301562, “MMV Box screening against Plasmodium falciparum protein kinases and aminoacyl tRNA synthetases”.

Holding throughout (assay type): functional
Test [1] addresses T1, Mitogen-activated protein kinase (Plasmodium falciparum, UniProt Q25917).
T1 sequence (Q25917 whole entry): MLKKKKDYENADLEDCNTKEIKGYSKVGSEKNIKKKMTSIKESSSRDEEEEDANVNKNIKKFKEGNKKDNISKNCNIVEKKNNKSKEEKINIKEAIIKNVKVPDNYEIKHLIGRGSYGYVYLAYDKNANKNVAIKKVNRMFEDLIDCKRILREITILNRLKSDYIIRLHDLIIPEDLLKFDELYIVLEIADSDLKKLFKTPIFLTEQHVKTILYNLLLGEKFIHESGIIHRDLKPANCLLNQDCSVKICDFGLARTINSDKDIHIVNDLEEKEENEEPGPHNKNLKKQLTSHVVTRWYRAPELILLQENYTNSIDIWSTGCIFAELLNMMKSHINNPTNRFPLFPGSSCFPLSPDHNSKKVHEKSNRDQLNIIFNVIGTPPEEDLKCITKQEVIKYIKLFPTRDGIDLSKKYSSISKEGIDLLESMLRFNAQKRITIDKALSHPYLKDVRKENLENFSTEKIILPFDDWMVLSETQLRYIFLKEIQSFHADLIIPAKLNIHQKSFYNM
In words: Final concentrations were 1 uM ATP, 0.5 mM DTT, 1 mM MgCl2, 0.5 mg/mL BSA, and 10 ug/ml MAP2 in a buffer of 50 mM HEPES (pH 7.0). 0.5 mg/mL histone III-S served as the substrate (13); 100 uM AMP-PNP, an ATP analog, was used as a control inhibitor. Incubation time was 4 hours.

In test [2] the target is T2, Putative uncharacterized protein pk7 (Plasmodium falciparum, UniProt O96214).
T2 sequence (O96214 whole entry): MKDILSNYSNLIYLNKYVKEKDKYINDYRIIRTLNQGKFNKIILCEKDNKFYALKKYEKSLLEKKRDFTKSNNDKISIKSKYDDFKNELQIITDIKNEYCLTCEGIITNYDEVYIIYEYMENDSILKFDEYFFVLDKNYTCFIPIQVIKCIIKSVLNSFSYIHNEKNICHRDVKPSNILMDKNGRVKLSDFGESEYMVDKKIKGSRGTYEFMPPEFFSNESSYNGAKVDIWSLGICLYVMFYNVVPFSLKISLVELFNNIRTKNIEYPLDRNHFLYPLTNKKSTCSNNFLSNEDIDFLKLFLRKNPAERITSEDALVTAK
Briefly: Final concentrations were 1 uM ATP, 2 mM DTT, 20 mM MgCl2, 2 mM MnCl2, 0.01% BSA, and 6 ug/ml PK7, in a buffer of 20 mM Tris-HCl (pH 7.5). The enzyme itself was the only substrate present (since autophosphorylation occurs); 100 uM 1NA-PP1 was used as a control inhibitor. Incubation time was 3 hours.

Test [3] deals with T3, Cdk-related protein kinase 6 (Plasmodium falciparum, UniProt O77239).
T3 sequence (O77239 whole entry): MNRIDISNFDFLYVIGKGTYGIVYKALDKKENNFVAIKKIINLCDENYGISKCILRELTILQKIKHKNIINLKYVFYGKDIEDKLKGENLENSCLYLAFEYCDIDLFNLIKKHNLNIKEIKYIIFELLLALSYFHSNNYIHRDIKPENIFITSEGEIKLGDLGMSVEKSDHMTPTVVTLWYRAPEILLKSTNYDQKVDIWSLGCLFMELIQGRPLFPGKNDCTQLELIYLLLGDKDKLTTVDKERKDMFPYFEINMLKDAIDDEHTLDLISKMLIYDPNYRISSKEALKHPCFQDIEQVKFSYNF
In words: Final concentrations were 1.5 uM ATP, 5 mM MnCl2, and 15 ug/ml PK6 in a buffer of 100 mM Tris-HCl (pH 7.5). 50 ug/mL MBP was provided as the substrate; 10 uM staurosporine was used as a control inhibitor. Incubation time was 3 hours and 40 minutes.The catalytic activity of each kinase was considered proportional to ATP consumed, as determined from measurements of residual [ATP] with the luciferase-based reagent Kinase-Glo (Promega) following incubation. Luminescence (proportional to residual [ATP]) was measured on the plate readers FLx800 (BioTek Instruments, Winooski, VT, USA) and MicroBeta2. A general note: Kinase-Glo reads ATP consumption through a luciferase reaction.

For test [4], the target named is T4, Calcium-dependent protein kinase 4 (Plasmodium falciparum (isolate 3D7), UniProt Q8IBS5).
T4 sequence (Q8IBS5 whole entry): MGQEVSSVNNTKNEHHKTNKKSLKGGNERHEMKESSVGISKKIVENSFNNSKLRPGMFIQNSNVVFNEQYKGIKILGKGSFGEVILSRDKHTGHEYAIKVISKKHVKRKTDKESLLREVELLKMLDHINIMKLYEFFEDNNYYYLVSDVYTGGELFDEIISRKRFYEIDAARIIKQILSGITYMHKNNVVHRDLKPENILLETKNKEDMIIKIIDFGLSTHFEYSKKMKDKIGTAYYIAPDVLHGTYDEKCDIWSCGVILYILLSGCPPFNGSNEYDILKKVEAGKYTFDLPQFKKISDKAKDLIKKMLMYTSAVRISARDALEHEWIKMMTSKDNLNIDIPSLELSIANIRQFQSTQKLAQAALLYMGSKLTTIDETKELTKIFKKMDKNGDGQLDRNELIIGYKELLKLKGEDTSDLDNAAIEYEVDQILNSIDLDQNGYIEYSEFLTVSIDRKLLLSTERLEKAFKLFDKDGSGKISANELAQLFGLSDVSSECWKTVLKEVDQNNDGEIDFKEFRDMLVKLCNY
Briefly: MMV: CDPK4 Protein kinase inhibition assay using recombinant PfCDPK4, syntide2 peptide substrate, ATP and KinaseGlo to measure % inhibition at 1 uM MMV box compound.

For the next test, the target named is T5, Proline--tRNA ligase (Plasmodium falciparum (isolate 3D7), UniProt Q8I5R7).
T5 sequence (Q8I5R7 whole entry): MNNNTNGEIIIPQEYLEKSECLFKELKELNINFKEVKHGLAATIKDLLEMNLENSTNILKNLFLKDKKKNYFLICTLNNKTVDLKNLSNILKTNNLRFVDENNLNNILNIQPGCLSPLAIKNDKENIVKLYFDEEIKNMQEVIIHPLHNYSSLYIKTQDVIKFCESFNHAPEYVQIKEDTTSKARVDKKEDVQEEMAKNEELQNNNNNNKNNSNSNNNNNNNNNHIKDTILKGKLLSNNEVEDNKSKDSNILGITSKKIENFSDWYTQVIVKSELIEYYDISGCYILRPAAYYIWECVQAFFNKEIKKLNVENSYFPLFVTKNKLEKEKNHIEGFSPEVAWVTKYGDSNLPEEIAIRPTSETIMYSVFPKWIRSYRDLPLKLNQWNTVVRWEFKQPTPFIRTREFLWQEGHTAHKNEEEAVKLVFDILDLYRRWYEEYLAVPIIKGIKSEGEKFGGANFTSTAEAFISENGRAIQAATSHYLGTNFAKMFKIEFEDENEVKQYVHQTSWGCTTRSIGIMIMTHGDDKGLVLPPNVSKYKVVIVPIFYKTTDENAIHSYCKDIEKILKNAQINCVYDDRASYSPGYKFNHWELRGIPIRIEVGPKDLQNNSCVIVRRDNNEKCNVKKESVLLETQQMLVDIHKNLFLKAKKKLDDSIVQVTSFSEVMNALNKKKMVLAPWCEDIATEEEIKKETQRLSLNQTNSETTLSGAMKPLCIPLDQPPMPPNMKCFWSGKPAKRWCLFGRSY
Briefly: MMV: ProRS recombinant Plasmodium falciparum Prolyl-tRNA-synthetase, assay with yeast tRNA, ATP, and proline and 3 uM MMV malaria box compound, assay read out with kinase glo as % inhibition.

Test [5] has as its target Calcium-dependent protein kinase 1 (Plasmodium falciparum, UniProt P62344). In words: MMV: CDPK1 Protein kinase inhibition assay using recombinant PfCDPK1, syntide 2 peptide substrate, ATP and KinaseGlo to measure % inhibition at 1 uM MMV box compound.
In a further test the target is Lysine--tRNA ligase (Plasmodium falciparum (isolate 3D7), UniProt Q8IDJ8). Briefly: MMV: KRS recombinant Plasmodium falciparum Lysyl-tRNA-synthetase, assay with yeast tRNA, ATP, and lysine and 3 uM MMV malaria box compound, assay read out with kinase glo as % inhibition.
Lysine--tRNA ligase, sequence (Q8IDJ8 whole entry): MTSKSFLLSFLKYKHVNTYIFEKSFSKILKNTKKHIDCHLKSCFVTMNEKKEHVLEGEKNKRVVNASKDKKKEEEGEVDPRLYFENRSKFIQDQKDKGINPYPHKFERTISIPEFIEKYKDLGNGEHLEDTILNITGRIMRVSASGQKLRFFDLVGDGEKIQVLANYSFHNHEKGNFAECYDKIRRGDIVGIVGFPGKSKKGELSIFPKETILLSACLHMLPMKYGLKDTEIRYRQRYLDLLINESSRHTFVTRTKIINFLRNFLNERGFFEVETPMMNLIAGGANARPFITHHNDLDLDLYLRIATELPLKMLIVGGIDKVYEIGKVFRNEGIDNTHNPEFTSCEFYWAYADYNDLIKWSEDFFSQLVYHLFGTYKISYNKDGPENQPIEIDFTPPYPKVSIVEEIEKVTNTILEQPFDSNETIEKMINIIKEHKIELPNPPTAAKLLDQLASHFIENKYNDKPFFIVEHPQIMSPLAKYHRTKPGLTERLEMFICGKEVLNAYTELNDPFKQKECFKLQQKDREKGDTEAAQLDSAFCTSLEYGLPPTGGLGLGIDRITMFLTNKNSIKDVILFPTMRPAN

SMILES strings stand for the structures. pIC50: −log10 of the molar value.

Calcium-dependent protein kinase 1, sequence (P62344 whole entry): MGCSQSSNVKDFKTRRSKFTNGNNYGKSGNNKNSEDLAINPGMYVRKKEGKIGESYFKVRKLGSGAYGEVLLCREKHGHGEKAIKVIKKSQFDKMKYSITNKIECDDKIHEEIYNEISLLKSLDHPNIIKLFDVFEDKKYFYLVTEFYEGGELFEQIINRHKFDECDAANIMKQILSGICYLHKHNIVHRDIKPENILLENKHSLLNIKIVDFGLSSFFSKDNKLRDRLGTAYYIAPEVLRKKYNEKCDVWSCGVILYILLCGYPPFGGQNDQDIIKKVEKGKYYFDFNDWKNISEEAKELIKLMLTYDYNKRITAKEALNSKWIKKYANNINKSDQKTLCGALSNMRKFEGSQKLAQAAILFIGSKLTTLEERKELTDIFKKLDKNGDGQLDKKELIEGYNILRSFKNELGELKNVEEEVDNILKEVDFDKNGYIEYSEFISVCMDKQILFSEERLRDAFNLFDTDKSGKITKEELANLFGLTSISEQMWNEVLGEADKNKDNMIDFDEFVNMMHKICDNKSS

On to `O=C(Nc1ccccc1O)c1ccc(Oc2cccc(C(=O)Nc3ccccc3O)c2)cc1`, for which the negative logarithm of the IC50 (pIC50) (commonly −log10 of the IC50, conventionally taken in molar units) in test [1] is less than 6.00; in test [2], less than 6.00; in test [3] it was less than 6.00; in test [4], less than 6.00; on Proline--tRNA ligase, less than 5.60; in test [5] it was less than 6.00. Also, the pIC50 at Lysine--tRNA ligase is less than 5.60.
Consider `CC(C)OCc1cc(CN2CCN(c3cccc(Cl)c3)CC2)c(O)c2ncccc12`, for which the negative-log IC50 (pIC50) is less than 6.00 in test [1]; less than 6.00 in test [2]; less than 6.00 in test [3]; less than 6.00 in test [4]; less than 5.60 on Proline--tRNA ligase; less than 6.00 in test [5]. The pIC50 on Lysine--tRNA ligase is less than 5.60.
Turning to `COc1ccccc1C(=O)ON=C(N)Cc1cccc2ccccc12`, the pIC50 was less than 6.00 in test [1]; less than 6.00 in test [2]; less than 6.00 in test [3]; less than 6.00 in test [4]; less than 5.60 on Proline--tRNA ligase; less than 6.00 in test [5]. The negative logarithm of the IC50 (pIC50) on Lysine--tRNA ligase was less than 5.60.
`CCCC(c1nnnn1C1CCCCC1)N1CCN(C(=O)c2ccco2)CC1` (stereo not drawn): the negative-log IC50 (pIC50) is less than 6.00 in test [1]; less than 6.00 in test [2]; less than 6.00 in test [3]; less than 6.00 in test [4]; less than 5.60 at Proline--tRNA ligase; less than 6.00 in test [5]. Besides, the pIC50 at Lysine--tRNA ligase is less than 5.60.
`Cc1cc(N2CCCC2)nc(Nc2ccc(NC(=O)CCc3ccccc3)cc2)n1`: the negative-log IC50 (pIC50) in test [1] was less than 6.00; in test [2], less than 6.00; in test [3], less than 6.00; in test [4], less than 6.00; on Proline--tRNA ligase, less than 5.60; in test [5], less than 6.00. Further, on Lysine--tRNA ligase, the pIC50 is less than 5.60.
Turning to `COc1ccc(OC)c(C2C3=C(CC(C)(C)CC3=O)N(c3ccc(Cl)c(Cl)c3)C3=C2C(=O)CC(C)(C)C3)c1`, the pIC50 is less than 6.00 in test [1]; less than 6.00 in test [2]; less than 6.00 in test [3]; less than 6.00 in test [4]; less than 5.60 at Proline--tRNA ligase; less than 6.00 in test [5]. Besides, the negative logarithm of the IC50 (pIC50) on Lysine--tRNA ligase is less than 5.60.
For the molecule `Oc1ccc(Cl)cc1CNc1nc2ccccc2[nH]1`, the pIC50 in test [1] is less than 6.00; in test [2] it was less than 6.00; in test [3], less than 6.00; in test [4], less than 6.00; on Proline--tRNA ligase, less than 5.60; in test [5] it was less than 6.00. For the same molecule, on Lysine--tRNA ligase, the pIC50 was less than 5.60.
With `COc1nc(Nc2ccc(C(C)C)cc2)nc(OC)n1`, the negative logarithm of the IC50 (pIC50) in test [1] was less than 6.00; in test [2] it was less than 6.00; in test [3] it was less than 6.00; in test [4], less than 6.00; on Proline--tRNA ligase, less than 5.60; in test [5] it was less than 6.00. Further, on Lysine--tRNA ligase, the pIC50 is less than 5.60.
As to `Nc1ccn([C@@H]2O[C@H](CO)[C@@H](O)[C@H]2O)c(=O)n1` [CYTIDINE], the negative-log IC50 (pIC50) is less than 6.00 in test [1]; less than 6.00 in test [2]; less than 6.00 in test [3]; less than 6.00 in test [4]; less than 5.60 at Proline--tRNA ligase; less than 6.00 in test [5]. In addition, on Lysine--tRNA ligase, the negative-log IC50 (pIC50) is less than 5.60.
`COc1ccc(-c2c(C)nn3c(N)c(C#N)cnc23)cc1OC`: the pIC50 is less than 6.00 in test [1]; less than 6.00 in test [2]; less than 6.00 in test [3]; less than 6.00 in test [4]; less than 5.60 on Proline--tRNA ligase; less than 6.00 in test [5]. For the same molecule, the pIC50 on Lysine--tRNA ligase was less than 5.60.
As for `Cc1ccc(-c2cc(C(=O)Nc3ccc(S(=O)(=O)N4CCCCC4)cc3)[nH]n2)c(O)c1`, the negative logarithm of the IC50 (pIC50) in test [1] is less than 6.00; in test [2] it was less than 6.00; in test [3] it was less than 6.00; in test [4] it was less than 6.00; on Proline--tRNA ligase, less than 5.60; in test [5], less than 6.00. The pIC50 at Lysine--tRNA ligase is less than 5.60.
As for `COc1ccccc1N1C(=N)SC(=Cc2ccc(OCc3ccccc3F)cc2)C1=O`, the negative-log IC50 (pIC50) in test [1] was less than 6.00; in test [2] it was less than 6.00; in test [3] it was less than 6.00; in test [4], less than 6.00; on Proline--tRNA ligase, less than 5.60; in test [5], less than 6.00. Besides, the negative-log IC50 (pIC50) at Lysine--tRNA ligase was less than 5.60.
As to `O=C(CSc1ccc2nnc(-c3cccc(F)c3)n2n1)Nc1ccc2c(c1)OCO2`, the negative logarithm of the IC50 (pIC50) in test [1] was less than 6.00; in test [2], less than 6.00; in test [3] it was less than 6.00; in test [4], less than 6.00; at Proline--tRNA ligase, less than 5.60; in test [5] it was less than 6.00. In addition, at Lysine--tRNA ligase, the negative logarithm of the IC50 (pIC50) is less than 5.60.
As for `OC1=C2C(=Nc3ccccc3SC2c2ccccc2)c2ccccc21` (stereo not drawn), the negative-log IC50 (pIC50) in test [1] is less than 6.00; in test [2], less than 6.00; in test [3] it was less than 6.00; in test [4], less than 6.00; at Proline--tRNA ligase, less than 5.60; in test [5] it was less than 6.00. For the same molecule, on Lysine--tRNA ligase, the negative-log IC50 (pIC50) is less than 5.60.
